Assay results taken from US10244779B2, “Method of improving stability of sweet enhancer and composition containing stabilized sweet enhancer” (SENOMYX, INC., priority 2010, dated 2019).

Experiment: Photostability of Compound A in various mediums (water, brewed coffee, tea, TBHQ in water; FIG. 1)
Assay type: physicochemical
Details: TBHQ 200 ppm in water
Method: The equivalent sunlight exposure time for 24 hours in the Q-Sun at a constant temperature of 25° C. and irradiance of 450 mW/m^2 @340 nm is estimated to be equivalent to approximately 15.9 days of direct sunlight in the Southwestern United States.
FIG. 1 illustrates the effect of coffee and tea on rate of photo-degradation of Compound A relative to water alone.

| Compound | effect on the rate of photo-degradation of Compound A |
| --- | --- |
| CC(C)(C)c1cc(O)ccc1O [tert-butyl hydroquinone] | marginal effect |

Experiment: not given
Details: not given

| Compound | melting point [°C] |
| --- | --- |
| CCC(CC)NC(=O)C(C)(C)COc1cccc2nc(C)c(C(=O)O)c(N)c12 [Example 148, 4-amino-5-(2,2-dimethyl-3-oxo-3-(pentan-3-ylamino)propoxy)-2-methyl-quinoline-3-carboxylic Acid] | 172 to 174 |
| CCC(=O)NC(C)(C)COc1cccc2nc(C)c(C(=O)O)c(N)c12 [Example 141, 4-amino-2-methyl-5-(2-methyl-2-propionamidopropoxy)quinoline-3-carboxylic Acid] | 189 to 193 |
| Cc1nc2cccc(OCC(C)C)c2c(N)c1C(=O)O [Example 41, 4-amino-5-isobutoxy-2-methylquinoline-3-carboxylic Acid] | 203.7 |
| Cc1nc2cccc(OCC(C)(C)NC(=O)CC3CCOCC3)c2c(N)c1C(=O)O [Example 145, 4-amino-2-methyl-5-(2-methyl-2-(2-(tetrahydro-2H-pyran-4-yl)acetamido)-propoxy)quinoline-3-carboxylic Acid] | 175 to 178 |
| Cc1nc2cccc(OC3CCCCC3)c2c(N)c1C(=O)O [Example 36, 4-amino-5-(cyclohexyloxy)-2-methylquinoline-3-carboxylic Acid] | 220 to 221.5 |

Continued, values first:

| melting point [°C] | Compound |
| --- | --- |
| 176 to 179 | Cc1nc2cccc(OCC(C)(C)C(=O)NCC(C)C)c2c(N)c1C(=O)O [Example 150, 4-amino-5-(3-(isobutylamino)-2,2-dimethyl-3-oxopropoxy)-2-methylquinoline-3-carboxylic Acid] |
| 195 to 198 | Cc1nc2cccc(OCC(C)(C)NC(=O)CC(C)C)c2c(N)c1C(=O)O [Example 138, 4-amino-2-methyl-5-(2-methyl-2-(3-methylbutanamido)propoxy)quinoline-3-carboxylic Acid] |
| 229 to 230 | CCCOc1cccc2c1C(N)=NS(=O)(=O)N2 [Example 158, 4-Amino-5-(propyloxy)-1H-benzo[c][1,2,6]thiadiazine-2,2-dioxide] |
| 177 to 179 | Cc1nc2cccc(OCC(C)(C)C(=O)NCC3CC3)c2c(N)c1C(=O)O [Example 146, 4-amino-5-(3-((cyclopropylmethyl)amino)-2,2-dimethyl-3-oxopropoxy)-2-methylquinoline-3-carboxylic Acid] |
| 170 to 173 | Cc1nc2cccc(OCC(C)(C)NC(=O)C3CCOCC3)c2c(N)c1C(=O)O [Example 140, 4-amino-2-methyl-5-(2-methyl-2-(tetrahydro-2H-pyran-4-carboxamido)-propoxy)quinoline-3-carboxylic Acid] |
| 183 to 185 | Cc1nc2cccc(O[C@H]3CC[C@H](NC(=O)C(C)C)CC3)c2c(N)c1C(=O)O [Example 137, 4-amino-5-(((1,4)-trans-4-isobutyramidocyclohexyl)oxy)-2-methylquinoline-3-carboxylic Acid] |
